Experimental data published in article PMC6920857, “Novel Series of Methyl 3-(Substituted Benzoyl)-7-Substituted-2-Phenylindolizine-1-Carboxylates as Promising Anti-Inflammatory Agents: Molecular Modeling Studies” (Biomolecules, 2019).

Key:
[1] = biological target: T1, human recombinant COX-2 enzyme (Homo sapiens, UniProt P35354); assay: In vitro COX-2 inhibition assay
T1 sequence (P35354 18-604): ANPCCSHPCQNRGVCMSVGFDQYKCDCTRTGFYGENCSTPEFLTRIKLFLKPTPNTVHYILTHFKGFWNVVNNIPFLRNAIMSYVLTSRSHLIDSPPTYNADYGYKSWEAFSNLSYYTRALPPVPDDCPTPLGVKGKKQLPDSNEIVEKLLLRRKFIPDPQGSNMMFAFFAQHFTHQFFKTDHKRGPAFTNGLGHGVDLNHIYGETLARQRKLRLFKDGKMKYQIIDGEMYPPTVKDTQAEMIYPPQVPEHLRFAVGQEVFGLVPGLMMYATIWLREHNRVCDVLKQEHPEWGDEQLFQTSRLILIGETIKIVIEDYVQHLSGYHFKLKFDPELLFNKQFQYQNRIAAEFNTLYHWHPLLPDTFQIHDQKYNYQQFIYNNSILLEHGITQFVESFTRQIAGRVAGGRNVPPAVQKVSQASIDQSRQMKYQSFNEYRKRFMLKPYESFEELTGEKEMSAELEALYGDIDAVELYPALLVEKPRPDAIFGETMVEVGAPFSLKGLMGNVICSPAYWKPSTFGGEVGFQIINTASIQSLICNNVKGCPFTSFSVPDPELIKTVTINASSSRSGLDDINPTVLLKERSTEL

SMILES | IC50 [1] | melting point
COC(=O)c1c(-c2ccccc2)c(C(=O)c2ccccc2)n2ccc(C)cc12 [Compound 4a, Methyl 3-Benzoyl-7-Methyl-2-Phenylindolizine-1-Carboxylate] | 41.59 ± 0.03 µM | 173 to 174 °C
COC(=O)c1c(-c2ccccc2)c(C(=O)c2ccc(F)cc2)n2ccc(C)cc12 [Compound 4b, Methyl 3-(4-Fluorobenzoyl)-7-Methyl-2-Phenylindolizine-1-Carboxylate] | 27.08 ± 0.03 µM | 167 to 168 °C
COC(=O)c1c(-c2ccccc2)c(C(=O)c2ccc(Cl)cc2)n2ccc(C)cc12 [Compound 4c, Methyl 3-(4-Chlorobenzoyl)-7-Methyl-2-Phenylindolizine-1-Carboxylate] | 38.11 ± 0.03 µM | 154 to 155 °C
COC(=O)c1c(-c2ccccc2)c(C(=O)c2ccc(Br)cc2)n2ccc(C)cc12 [Compound 4d, Methyl 3-(4-Bromobenzoyl)-7-Methyl-2-Phenylindolizine-1-Carboxylate] | 37.66 ± 0.03 µM | 137 to 138 °C
COC(=O)c1c(-c2ccccc2)c(C(=O)c2ccc(C#N)cc2)n2ccc(C#N)cc12 [Compound 4e, Methyl 7-Cyano-3-(4-Cyanobenzoyl)-2-Phenylindolizine-1-Carboxylate] | 6.71 ± 0.03 µM | 235 to 236 °C
COC(=O)c1c(-c2ccccc2)c(C(=O)c2ccc(Br)cc2)n2ccc(C#N)cc12 [Compound 4f, Methyl 3-(4-Bromobenzoyl)-7-Cyano-2-Phenylindolizine-1-Carboxylate] | 13.55 ± 0.03 µM | 208 to 209 °C
COC(=O)c1c(-c2ccccc2)c(C(=O)c2ccc(OC)cc2)n2ccc(C#N)cc12 [Compound 4g, Methyl 7-Cyano-3-(4-Methoxybenzoyl)-2-Phenylindolizine-1-Carboxylate] | 9.62 ± 0.03 µM | 166 to 167 °C
